# Reference: patent publication US12077503B2, “Substituted cyclic amides and their use as herbicides” (FMC CORPORATION, priority 2015, dated 2024)
# Assays:
# Format in all cases: in vivo
# [1] = system: morningglory (Ipomoea spp.); experiment: Test A postemergence; conditions: postemergence, 0 to 100 scale (0 no effect, 100 complete control)
# How it was run: (§1)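 In a loam soil and sand blend, planted seeds got a preemergence directed soil spray, and young plants at the one- to two-leaf stage, 2–10 cm high, got a postemergence application; ~10 d greenhouse hold; injury rated visually, 0 = none, 100 = complete control.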
# [2] = system: barnyardgrass (Echinochloa crus-galli); experiment: Test A postemergence; conditions: postemergence, 0 to 100 scale (0 no effect, 100 complete control)
# How it was run: as §1
# [3] = system: wheat (Triticum aestivum); experiment: Test A postemergence; conditions: postemergence, 0 to 100 scale (0 no effect, 100 complete control)
# How it was run: as §1
# [4] = system: giant foxtail (Setaria faberii); experiment: Test A postemergence; conditions: postemergence, 0 to 100 scale (0 no effect, 100 complete control)
# How it was run: as §1
# [5] = system: crabgrass, large (Digitaria sanguinalis); experiment: Test A postemergence; conditions: postemergence, 0 to 100 scale (0 no effect, 100 complete control)
# How it was run: as §1
# corn (Zea mays) [6] = experiment: Test A postemergence; conditions: postemergence, 0 to 100 scale (0 no effect, 100 complete control)
# How it was run: as §1
# [7] = system: velvetleaf (Abutilon theophrasti); experiment: Test A postemergence; conditions: postemergence, 0 to 100 scale (0 no effect, 100 complete control)
# How it was run: as §1
# [8] = system: pigweed (Amaranthus retroflexus); experiment: Test A postemergence; conditions: postemergence, 0 to 100 scale (0 no effect, 100 complete control)
# How it was run: as §1
# [9] = system: morningglory (Ipomoea spp.); experiment: Test A preemergence; conditions: preemergence
# How it was run: as §1
# [10] = system: barnyardgrass (Echinochloa crus-galli); experiment: Test A preemergence; conditions: preemergence
# How it was run: as §1
# [11] = system: wheat (Triticum aestivum); experiment: Test A preemergence; conditions: preemergence
# How it was run: as §1
# [12] = system: giant foxtail (Setaria faberii); experiment: Test A preemergence; conditions: preemergence
# How it was run: as §1
# [13] = system: crabgrass, large (Digitaria sanguinalis); experiment: Test A preemergence; conditions: preemergence
# How it was run: as §1
# corn (Zea mays) [14] = experiment: Test A preemergence; conditions: preemergence
# How it was run: as §1
# [15] = system: velvetleaf (Abutilon theophrasti); experiment: Test A preemergence; conditions: preemergence
# How it was run: as §1
# [16] = system: pigweed (Amaranthus retroflexus); experiment: Test A preemergence; conditions: preemergence
# rice (Oryra sativa) = experiment: Test B flooded paddy test; conditions: Flood, 250 g ai/ha; 0 to 100 scale where 0 is no effect and 100 is complete control; 13 to 15 d
# How it was run: (§2)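 Flooding to 3 cm over soil accompanied treatment, which consisted of adding compound to the standing water around 2-leaf plants; depth was then maintained. Visual assessment versus controls followed at 13 to 15 d (scale 0–100, 0 meaning no effect).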
# [17] = system: barnyardgrass (Echinochloa crus-galli); experiment: Test B flooded paddy test; conditions: Flood, 250 g ai/ha; 0 to 100 scale where 0 is no effect and 100 is complete control; 13 to 15 d
# How it was run: as §2
# [18] = system: ducksalad (Heteranthera limosa); experiment: Test B flooded paddy test; conditions: Flood, 250 g ai/ha; 0 to 100 scale where 0 is no effect and 100 is complete control; 13 to 15 d
# How it was run: as §2
# [19] = system: sedge, umbrella (small-flower umbrella sedge, Cyperus difformis); experiment: Test B flooded paddy test; conditions: Flood, 250 g ai/ha; scale of 0 to 100 where 0 is no effect and 100 is complete control
# How it was run: as §2
# [20] = 125 g ai/ha, visual injury after approximately 10 d
# [21] = 500 g ai/ha, visual injury, approx. 10 d
# [22] = 125 g ai/ha, visual rating after approx. 10 d, 0 to 100 scale where 0 is no effect and 100 is complete control
# [23] = 500 g ai/ha, 0 to 100 scale, 0 = no effect, 100 = complete control
Structure (SMILES),"Plant response rating, Morningglory [1, 20]","Plant response rating, Morningglory [1, 21]","Plant response rating, Barnyardgrass [2, 20]","Plant response rating, Barnyardgrass [2, 21]","Plant response rating, Wheat [3, 20]","Plant response rating, Wheat [3, 21]","Plant response rating, Foxtail, Giant [4, 20]","Plant response rating, Foxtail, Giant [4, 21]","Plant response rating, Crabgrass, Large [5, 20]","Plant response rating, Crabgrass, Large [5, 21]","Plant response rating, Corn (corn (Zea mays) [6]; [20])","Plant response rating, Corn (corn (Zea mays) [6]; [21])","Plant response rating, Velvetleaf [7, 20]","Plant response rating, Velvetleaf [7, 21]","Plant response rating, Pigweed [8, 20]","Plant response rating, Pigweed [8, 21]","Plant response rating, Morningglory [9, 22]","Plant response rating, Morningglory [9, 23]","Plant response rating, Barnyardgrass [10, 22]","Plant response rating, Barnyardgrass [10, 23]",also measured
O=C1NCC(c2cccc(O)c2)C1C(=O)Nc1ccccc1F (racemic) [Compound 714],0,0,0,0,0,0,0,0,0,0,0,0,0,0,0,0,0,0,0,0,"Plant response rating, Wheat [11, 22]: 0; Plant response rating, Wheat [11, 23]: 0; Plant response rating, Foxtail, Giant [12, 22]: 0; Plant response rating, Foxtail, Giant [12, 23]: 20; Plant response rating, Crabgrass, Large [13, 22]: 20; Plant response rating, Crabgrass, Large [13, 23]: 30; Plant response rating, Corn (corn (Zea mays) [14]; [22]): 0; Plant response rating, Corn (corn (Zea mays) [14]; [23]): 0; Plant response rating, Velvetleaf [15, 22]: 0; Plant response rating, Velvetleaf [15, 23]: 0; Plant response rating, Pigweed [16, 22]: 0; Plant response rating, Pigweed [16, 23]: 0; Plant response rating, Rice (rice (Oryra sativa)): 0; Plant response rating, Barnyardgrass [17]: 0; Plant response rating, Ducksalad [18]: 0; Sedge, Umbrella plant response rating [19]: 0"
O=C1NCC(c2cccc(O)c2)C1C(=O)Nc1cccc(F)c1F (racemic) [Compound 715],0,0,0,0,0,0,0,0,0,0,0,0,0,0,0,0,0,0,0,0,"Plant response rating, Wheat [11, 22]: 0; Plant response rating, Wheat [11, 23]: 0; Plant response rating, Foxtail, Giant [12, 22]: 0; Plant response rating, Foxtail, Giant [12, 23]: 0; Plant response rating, Crabgrass, Large [13, 22]: 0; Plant response rating, Crabgrass, Large [13, 23]: 0; Plant response rating, Corn (corn (Zea mays) [14]; [22]): 0; Plant response rating, Corn (corn (Zea mays) [14]; [23]): 0; Plant response rating, Velvetleaf [15, 22]: 0; Plant response rating, Velvetleaf [15, 23]: 0; Plant response rating, Pigweed [16, 22]: 0; Plant response rating, Pigweed [16, 23]: 0; Plant response rating, Rice (rice (Oryra sativa)): 0; Plant response rating, Barnyardgrass [17]: 0; Plant response rating, Ducksalad [18]: 0; Sedge, Umbrella plant response rating [19]: 0"
